Measured values published in patent US8147838B2, “Peptide” (priority 2005, dated 2012).
No end group written: not given here.

Tests used:
[1] = target: MHC class I allele A*0101 (A1) (Homo sapiens, UniProt P04439, A114D/A174V/A182V/D101N/D185E/E176A/E190D/L180R/Q94H/R68K/S129P/T187R/V100A/V91M/W191G); test: iScore multi-parametric analysis, A*0101; type: binding; conditions: level of binding: >0.5, 0.25-0.5, <0.25
Experimental: (§1) Finally, multiparametric analysis is performed on the results from these assays and an iScore is generated. The iScore represents a measure of the overall quality of peptide-MHC binding, enabling candidate peptides to be ranked in order of binding quality and allowing rational prioritisation of peptides for functional cellular follow-up studies.
(§2) As part of the validation of the iTopia system, a panel of overlapping peptides derived from the CMV pp 65 protein were used and their binding properties for the A*0201 allele analysed. A number of T cell epitopes restricted by HLA A*0201 had already been identified (by more conventional methodologies) by other researchers for this protein. In the iTopia study, it was reported that an iScore of: >0.5 represented “good quality binding”; between 0.25 and 0.5 represented “medium quality binding”; and <0.25 represented “poor quality binding”. Six of the 20 peptides which gave a “good” iScore (>0.5) for A*0201, represented previously characterised CMV pp 65 A*0201 epitopes.
(§3) Each MHC class I allele has different binding properties and affinities for peptides which they bind. Therefore, information obtained with HLA A*0201 in which peptides are ranked as good, medium or poor binders using >0.5, 0.25-0.5 and <0.25 as thresholds is not necessarily transferable between alleles. Also, different proteins are likely to have distinct immunogenic profiles and the affinities between peptides and MHC class I molecules will be different between proteins. This may be particularly relevant in the case of self-antigens where immunogenicity is likely to be lower than in foreign proteins.
(§4) Multi-parametric analysis permits the integration of half-life and ED50 parameters in an integrated iScore. This reflects the capability of a peptide to reconstitute with MHC molecules in a stable complex, defining its overall level of binding i.e. the iScore value represents the overall quality of peptide-MHC binding and is used to rank candidate peptides as an indicator of functional relevance. The lead candidate epitopes for each allele are selected for cellular functional analysis to confirm their biological relevance.
(§5) The changes in gradient of the graphs in FIGS. 7 to 10 are indicated by a line which delineates the populations of iScores forming the basis of discrimination for further functional studies.

[2] = target: MHC class I allele A*0201 (A2) (Homo sapiens, UniProt P04439, D140Y/D185E/D98H/E176V/E277Q/G131W/G231S/I119V/I121R/I166T/I218V/L300P/L318F/N151K/N90K/P208A/P217A/Q86G/Q94H/R138H/R169H/T345S); test: iScore multi-parametric analysis, A*0201; type: binding; conditions: level of binding: >0.5, 0.25-0.5, <0.25
Experimental: as §1, §2, §3, §4, §5

[3] = target: MHC class I allele B*0702 (B7) (Homo sapiens, UniProt P01889); test: iScore multi-parametric analysis, B*0702; conditions: level of binding: >0.5, 0.25-0.5, <0.25
Experimental: as §1
As part of the validation of the iTopia system, a panel of overlapping peptides derived from the CMV pp 65 protein were used and their binding properties for the A*0201 allele analysed. A number of T cell epitopes restricted by HLA A*0201 had already been identified (by more conventional methodologies) by other researchers for this protein. In the iTopia study, it was reported that an iScore of: >0.5 represented “good quality binding”; between 0.25 and 0.5 represented “medium quality binding”; and <0.25 represented “poor quality binding”.
as §4

[4] = target: MHC class I allele A*0301 (A3) (Homo sapiens, UniProt P04439); test: iScore multi-parametric analysis, A*0301; type: binding; conditions: for iScore, MHC Class I Molecule A*0301: level of binding: >0.5, 0.25-0.5, <0.25
Experimental: as §1, §2, §3, §4, §5

[5] = test system: PBMCs recovered from TroVax treated patients; type: cell-based, human
[6] = positive proliferative responses

VLYLNRKGI [Peptide 187]
iScore, MHC Class I Molecule A*0101 [1]: 0
iScore, MHC Class I Molecule A*0201 [2]: 0.095
iScore, MHC Class I Molecule B*0702 [3]: 0.164
iScore, MHC Class I Molecule A*0301 [4]: 0.014

LSHNPLADL [Peptide 75]
iScore, MHC Class I Molecule A*0101 [1]: 0
iScore, MHC Class I Molecule A*0201 [2]: 0.095
iScore, MHC Class I Molecule B*0702 [3]: 0
iScore, MHC Class I Molecule A*0301 [4]: 0

ELILNHIVP [Peptide 89]
iScore, MHC Class I Molecule A*0101 [1]: 0
iScore, MHC Class I Molecule A*0201 [2]: 0.067
iScore, MHC Class I Molecule B*0702 [3]: 0
iScore, MHC Class I Molecule A*0301 [4]: 0

QTSYVFLGI [Peptide 177]
iScore, MHC Class I Molecule A*0101 [1]: 0.027
iScore, MHC Class I Molecule A*0201 [2]: 0.127
iScore, MHC Class I Molecule B*0702 [3]: 0
iScore, MHC Class I Molecule A*0301 [4]: 0

RLDEVRAGA [Peptide 65]
iScore, MHC Class I Molecule A*0101 [1]: 0
iScore, MHC Class I Molecule A*0201 [2]: 0.422
iScore, MHC Class I Molecule B*0702 [3]: 0.032
iScore, MHC Class I Molecule A*0301 [4]: 0.057

CC[C@H](C)[C@H](NC(=O)[C@H](C)NC(=O)CNC(=O)[C@@H](NC(=O)[C@@H](N)CC(C)C)[C@@H](C)CC)C(=O)N[C@@H](Cc1ccccc1)C(=O)N[C@@H](CC(C)C)C(=O)N[C@@H](CC(C)C)C(=O)N[C@H](C(=O)O)C(C)C [Peptide 183]
iScore, MHC Class I Molecule A*0101 [1]: 0
iScore, MHC Class I Molecule A*0201 [2]: 1.897
iScore, MHC Class I Molecule B*0702 [3]: 0
iScore, MHC Class I Molecule A*0301 [4]: 0.07

SLRHLDLSN [Peptide 118]
iScore, MHC Class I Molecule A*0101 [1]: 0
iScore, MHC Class I Molecule A*0201 [2]: 0.03
iScore, MHC Class I Molecule B*0702 [3]: 0
iScore, MHC Class I Molecule A*0301 [4]: 0

LAELAALNL [Peptide 59]
iScore, MHC Class I Molecule A*0101 [1]: 0
iScore, MHC Class I Molecule A*0201 [2]: 0.72
iScore, MHC Class I Molecule B*0702 [3]: 0.074
iScore, MHC Class I Molecule A*0301 [4]: 0

KVLHNGTLA [Peptide 136]
iScore, MHC Class I Molecule A*0101 [1]: 0
iScore, MHC Class I Molecule A*0201 [2]: 0.15
iScore, MHC Class I Molecule B*0702 [3]: 0
iScore, MHC Class I Molecule A*0301 [4]: 0

APSPLVELI [Peptide 86]
iScore, MHC Class I Molecule A*0101 [1]: 0
iScore, MHC Class I Molecule A*0201 [2]: 0
iScore, MHC Class I Molecule B*0702 [3]: 0.101
iScore, MHC Class I Molecule A*0301 [4]: 0

PPSLQTSYV [Peptide 175]
iScore, MHC Class I Molecule A*0101 [1]: 0
iScore, MHC Class I Molecule A*0201 [2]: 0.145
iScore, MHC Class I Molecule B*0702 [3]: 0
iScore, MHC Class I Molecule A*0301 [4]: 0

IKKWMHNIR [Peptide 191]
iScore, MHC Class I Molecule A*0101 [1]: 0
iScore, MHC Class I Molecule A*0201 [2]: 0.181
iScore, MHC Class I Molecule B*0702 [3]: 0
iScore, MHC Class I Molecule A*0301 [4]: 0

C[C@H](NC(=O)[C@H](C)NC(=O)[C@@H]1CCCN1C(=O)CNC(=O)[C@H](CCCNC(=N)N)NC(=O)[C@H](CO)NC(=O)[C@H](CS)NC(=O)CNC(=O)CN)C(=O)O [Peptide 2]
iScore, MHC Class I Molecule A*0101 [1]: 0
iScore, MHC Class I Molecule A*0201 [2]: 0.016
iScore, MHC Class I Molecule B*0702 [3]: 0.012
iScore, MHC Class I Molecule A*0301 [4]: 0

SSAPFLASA [Peptide 22]
iScore, MHC Class I Molecule A*0101 [1]: 0
iScore, MHC Class I Molecule A*0201 [2]: 0.389
iScore, MHC Class I Molecule B*0702 [3]: 0
iScore, MHC Class I Molecule A*0301 [4]: 0

SPLVELILN [Peptide 87]
iScore, MHC Class I Molecule A*0101 [1]: 0
iScore, MHC Class I Molecule A*0201 [2]: 0.094
iScore, MHC Class I Molecule B*0702 [3]: 0
iScore, MHC Class I Molecule A*0301 [4]: 0

PLPDQCPAL [Peptide 29, PLPDQCPAL]
iScore, MHC Class I Molecule A*0101 [1]: 0
iScore, MHC Class I Molecule A*0201 [2]: 0.088
iScore, MHC Class I Molecule B*0702 [3]: 0
iScore, MHC Class I Molecule A*0301 [4]: 0

CC(C)C[C@H](NC(=O)[C@H](Cc1ccc(O)cc1)NC(=O)[C@H](CC(C)C)NC(=O)[C@@H](NC(=O)[C@H](CC(C)C)NC(=O)[C@@H](N)CC(C)C)C(C)C)C(=O)N[C@@H](CC(N)=O)C(=O)N[C@@H](CCCNC(=N)N)C(=O)N[C@@H](CCCCN)C(=O)O [Peptide 186]
iScore, MHC Class I Molecule A*0101 [1]: 0
iScore, MHC Class I Molecule A*0201 [2]: 0.386
iScore (iTopia), A*0301 ([4]; integrates half-life and ED50): 0.375
iScore, MHC Class I Molecule A*0301 [4]: 0.372

43.2: class II 5T4 20 mer peptide (details in Table 12) (LNSADLDCDPILPPSLQTSY) [Peptide 43.2]
most likely HLA restriction ([5]; from HLA-type frequency among responding patients): DQ6, DR15, or DR51
responders with HLA type DQ6 out of all responders [5, 6]: 7 out of 11
responders with HLA type DR15 out of all responders [5, 6]: 6 out of 11
responders with HLA type DR51 out of all responders [5, 6]: 6 out of 11
HLA-type distribution among positive proliferative responses: DQ2 ([5]; responding patients with HLA type DQ2 / all responding patients, PBMCs from TroVax treated patients): 5/11
HLA-type distribution among positive proliferative responses: DQ4 ([5]; responding patients with HLA type DQ4 / all responding patients, PBMCs from TroVax treated patients): 1/11
HLA-type distribution among positive proliferative responses: DQ5 ([5]; responding patients with HLA type DQ5 / all responding patients, PBMCs from TroVax treated patients): 3/11
HLA-type distribution among positive proliferative responses: DQ6 ([5]; responding patients with HLA type DQ6 / all responding patients, PBMCs from TroVax treated patients): 7/11
HLA-type distribution among positive proliferative responses: DQ7 ([5]; responding patients with HLA type DQ7 / all responding patients, PBMCs from TroVax treated patients): 1/11
HLA-type distribution among positive proliferative responses: DQ8 ([5]; responding patients with HLA type DQ8 / all responding patients, PBMCs from TroVax treated patients): 0/11
HLA-type distribution among positive proliferative responses: DQ9 ([5]; responding patients with HLA type DQ9 / all responding patients, PBMCs from TroVax treated patients): 1/11
HLA-type distribution among positive proliferative responses: DR1 ([5]; responding patients with HLA type DR1 / all responding patients, PBMCs from TroVax treated patients): 2/11
HLA-type distribution among positive proliferative responses: DR4 ([5]; responding patients with HLA type DR4 / all responding patients, PBMCs from TroVax treated patients): 0/11
HLA-type distribution among positive proliferative responses: DR7 ([5]; responding patients with HLA type DR7 / all responding patients, PBMCs from TroVax treated patients): 4/11
HLA-type distribution among positive proliferative responses: DR8 ([5]; responding patients with HLA type DR8 / all responding patients, PBMCs from TroVax treated patients): 1/11
HLA-type distribution among positive proliferative responses: DR9 ([5]; responding patients with HLA type DR9 / all responding patients, PBMCs from TroVax treated patients): 0/11
HLA-type distribution among positive proliferative responses: DR11 ([5]; responding patients with HLA type DR11 / all responding patients, PBMCs from TroVax treated patients): 1/11
HLA-type distribution among positive proliferative responses: DR13 ([5]; responding patients with HLA type DR13 / all responding patients, PBMCs from TroVax treated patients): 2/11
HLA-type distribution among positive proliferative responses: DR15 ([5]; responding patients with HLA type DR15 / all responding patients, PBMCs from TroVax treated patients): 6/11
HLA-type distribution among positive proliferative responses: DR17 ([5]; responding patients with HLA type DR17 / all responding patients, PBMCs from TroVax treated patients): 2/11
HLA-type distribution among positive proliferative responses: DR51 ([5]; responding patients with HLA type DR51 / all responding patients, PBMCs from TroVax treated patients): 6/11
HLA-type distribution among positive proliferative responses: DR52 ([5]; responding patients with HLA type DR52 / all responding patients, PBMCs from TroVax treated patients): 4/11
HLA-type distribution among positive proliferative responses: DR53 ([5]; responding patients with HLA type DR53 / all responding patients, PBMCs from TroVax treated patients): 3/11
